# Test system: HTLV III
# Experiment: Anti-HIV activity: p24 antigen capture assay in HTLV III-infected C8166 cells
# Format: cell-based
# Settings: concentration giving 50% protection; C8166 cells (human CD4+ T-lymphoblast line) infected with 10-fold TCD50 of virus; 72 h incubation at 37°C; viral protein 24 antigen in supernatant
# Description: Die Aktivität der Purinderivate der vorliegenden Erfindung gegen HIV kann wie folgt nachgewiesen werden.
# In diesem Versuch verwendet man HTLV III, gezüchtet in C8166-Zellen (eine menschliche CD4⁺ T-Lymphoblastenlinie), RPM1 1640 Medium mit Bicarbonatpuffer, Antibiotika und l0%igem fötalem Rinderserum. Eine Zellensuspension wird mit der 10-fachen TCD₅₀ des Virus infiziert. Man lässt 90 Minuten bei 37°C adsorbieren. Die Zellen werden mit dem Medium gewaschen. Der Versuch wird in 6 ml Gewebekulturröhrchen durchgeführt. Jedes Röhrchen enthält 2 x 10⁵ infizierte Zellen in 1,5 ml Medium. Es werden 15 µl einer Lösung der Substanz in wässrigem Medium oder in DMSO zugesetzt. Nach 72 Stunden Inkubation bei 37°C in einer feuchten 5% CO₂ enthaltenden Atmosphäre werden die Kulturen zentrifugiert. Ein aliquoter Teil des Ueberstandes wird solubilisiert und einem Antigenabfangversuch unterworfen unter Verwendung eines primären Antiserums mit besonderer Reaktivität gegen virales Protein 24 und eines Meerrettich-Peroxidase-Detektionssystems. Die Farbenerzeugung wird spektrophotometrisch gemessen und in Abhängigkeit der Konzentration der Testsubstanz dargestellt. Die einen 50%igen Schutz erzeugende Konzentration (IC₅₀) wird ermittelt. Die Resultate sind in der folgenden Tabelle angegeben: […]
row,Compound,IC50
1,"Nc1nc(Cl)nc2c1ncn2[C@@H]1O[C@H](CO)C[C@@H]1F [Beispiel 1, 6-Amino-2-chlor-9-(2,3-dideoxy-2-fluor-β-D-threopentofuranosyl)-9H-purin]",1000 nM
2,"[N-]=[N+]=Nc1nc(N)c2ncn([C@@H]3O[C@H](CO)C[C@@H]3F)c2n1 [Beispiel 2, 6-Amino-2-azido-9-(2,3-dideoxy-2-fluor-β-D-threopentofuranosyl)-9H-purin]",10000 nM
3,"Nc1nc(N)c2ncn([C@@H]3O[C@H](CO)C[C@@H]3F)c2n1 [Beispiel 3, 2,6-Diamino-9-(2,3-dideoxy-2-fluor-β-D-threopentofuranosyl)-9H-purin]",1000 nM
